In patent US7432275B2, “Carboxylic acid, phosphate or phosphonate substituted quinazolin-4-ylamine analogues as capsaicin receptor modulators” (Neurogen Corporation, priority 2002, dated 2008):
Read-outs that look alike come from different tables or passages of the source.

Experiments:
[1] = molecular target: T1, human capsaicin receptor (Homo sapiens, UniProt Q8NER1); experiment: Capsaicin receptor binding assay ([3H]RTX competition, membranes of VR1-transfected HEK293 cells)
Source text: This Example illustrates the preparation of VR1-transfected cells and membrane preparations for use in binding assays (Example 5) and functional assays (Example 6).
This Example illustrates a representative assay of capsaicin receptor binding that may be used to determine the binding affinity of compounds for the capsaicin (VR1) receptor.
Binding studies with [^3H] […] 262:883-888.

[2] = molecular target: T1, human capsaicin receptor; experiment: Calcium mobilization assay; assay type: cell-based; settings: capsaicin used as positive control; read-out: approximate EC90 concentration
Experimental: Cells transfected with expression plasmids (as described in Example 4) and thereby expressing human capsaicin receptor are seeded and grown to 70-90% confluency in FALCON black-walled, clear-bottomed 96-well plates (#3904, BECTON-DICKINSON, Franklin Lakes, N.J.). […] After the incubation, the dye is emptied from the plates, and the cells are washed once with KRH buffer, and resuspended in KRH buffer.
To measure the ability of a test compound to agonize or antagonize a calcium mobilization response in cells expressing capsaicin receptors to capsaicin or other vanilloid agonist, the EC50 of the agonist capsaicin is first determined. An additional 20 μl of KRH buffer and 1 μl DMSO is added to each well of cells, prepared as described above. 100 μl capsaicin in KRH buffer is automatically transferred by the FLIPR instrument to each well. Capsaicin-induced calcium mobilization is monitored using either FLUOROSKAN ASCENT (Labsystems; Franklin, Mass.) or FLIPR (fluorometric imaging plate reader system; Molecular Devices, Sunnyvale, Calif.) instruments. […] In this equation, y is the maximum fluorescence signal, x is the concentration of the agonist or antagonist (in this case, capsaicin), a is the Emax, b corresponds to the EC50 value and c is the Hill coefficient. […]

[3] = determined as described in Example 5, read-out: Ki

T1 sequence (Q8NER1 whole entry): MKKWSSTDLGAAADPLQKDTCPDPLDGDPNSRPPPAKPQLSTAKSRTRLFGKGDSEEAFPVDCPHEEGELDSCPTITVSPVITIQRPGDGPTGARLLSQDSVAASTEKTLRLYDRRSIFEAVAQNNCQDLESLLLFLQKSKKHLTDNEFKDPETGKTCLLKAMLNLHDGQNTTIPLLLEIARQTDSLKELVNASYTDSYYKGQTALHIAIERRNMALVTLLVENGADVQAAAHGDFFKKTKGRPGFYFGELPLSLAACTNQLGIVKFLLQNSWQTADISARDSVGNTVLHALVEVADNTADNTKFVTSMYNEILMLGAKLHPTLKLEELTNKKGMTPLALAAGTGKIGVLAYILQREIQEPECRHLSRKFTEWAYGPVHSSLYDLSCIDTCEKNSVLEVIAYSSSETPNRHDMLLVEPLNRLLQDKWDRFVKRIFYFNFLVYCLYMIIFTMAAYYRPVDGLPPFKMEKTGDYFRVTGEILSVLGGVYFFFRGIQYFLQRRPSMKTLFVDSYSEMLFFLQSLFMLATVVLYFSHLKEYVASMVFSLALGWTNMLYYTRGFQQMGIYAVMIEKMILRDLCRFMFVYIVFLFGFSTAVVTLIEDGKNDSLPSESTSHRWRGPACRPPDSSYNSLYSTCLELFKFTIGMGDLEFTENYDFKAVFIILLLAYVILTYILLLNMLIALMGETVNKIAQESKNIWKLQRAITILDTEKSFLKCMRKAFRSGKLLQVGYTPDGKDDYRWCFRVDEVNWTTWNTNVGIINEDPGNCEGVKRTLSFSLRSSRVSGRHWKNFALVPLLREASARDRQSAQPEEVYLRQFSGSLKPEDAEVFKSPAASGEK

O=C(O)CNc1nc(Nc2ccc(C(F)(F)F)cc2)c2ccc(-c3ncccc3C(F)(F)F)cc2n1 [Compound 3, [4-(4-Trifluoromethyl-phenylamino)-7-(3-trifluoromethyl-pyridin-2-yl)-quinazolin-2-ylamino]-acetic acid]
Ki [1, 3]: < 1 µM

CCOP(=O)(Cc1nc(Nc2ccc(C(F)(F)F)cc2)c2ccc(-c3ncccc3C)cc2n1)OCC [Compound 5, [7-(3-Methyl-pyridin-2-yl)-4-(4-trifluoromethyl-phenylamino)-quinazolin-2-ylmethyl]-phosphonicacid diethyl ester]
Ki [1]: < 1 µM

CC(C)(C)c1ccc(Nc2nc(COP(=O)(OCc3ccccc3)OCc3ccccc3)nc3cc(-c4ncccc4C(F)(F)F)ccc23)cc1 [Compound 6, Phosphoric acid dibenzyl ester 4-(4-tert-butyl-phenylamino)-7-(3-trifluoromethyl-pyridin-2-yl)-quinazolin-2-ylmethyl ester]
Ki [1, 3]: < 1 µM

CC(C)(C)c1ccc(Nc2nc(COP(=O)(O)O)nc3cc(-c4ncccc4C(F)(F)F)ccc23)cc1 [Compound 7, Phosphoric acid mono-[4-(4-tert-butyl-phenylamino)-7-(3-trifluoromethyl-pyridin-2-yl)-quinazolin-2-ylmethyl] ester]
Ki [1, 3]: < 1 µM

O=P(OCc1ccccc1)(OCc1ccccc1)OCc1nc(Nc2ccc(C(F)(F)F)cc2)c2ccc(-c3ncccc3C(F)(F)F)cc2n1 [Compound 8, Phosphoric acid dibenzyl ester 4-(4-trifluoromethyl-phenylamino)-7-(3-trifluoromethyl-pyridin-2-yl)-quinazolin-2-ylmethyl ester]
Ki [1, 3]: < 1 µM

CC(C)(C)c1ccc(Nc2ncnc3cc(-c4ncccc4C(F)(F)F)cnc23)cc1OCC(=O)O [Compound 13, {2-tert-Butyl-5-[7-(3-trifluoromethyl-pyridin-2-yl)-pyrido[3,2-d]pyrimidin-4-ylamino]-phenoxy}-acetic acid]
Ki [1, 3]: < 1 µM

CCOP(=O)(Cc1nc(Nc2ccc(C(C)(C)C)cc2)c2ccc(-c3ncccc3C)cc2n1)OCC [Compound 16, [4-(4-tert-Butyl-phenylamino)-7-(3-methyl-pyridin-2-yl)-quinazolin-2-ylmethyl]-phosphonic acid diethylester]
Ki [1]: < 1 µM

CCOP(=O)(Cc1nc(Nc2ccc(C(C)(C)C)cc2)c2ccc(-c3ncccc3C(F)(F)F)cc2n1)OCC [Compound 17, [4-(4-tert-Butyl-phenylamino)-7-(3-trifluoromethyl-pyridin-2-yl)-quinazolin-2-ylmethyl]-phosphonicacid diethyl ester]
Ki [1]: < 1 µM

CCOP(=O)(O)Cc1nc(Nc2ccc(C(C)(C)C)cc2)c2ccc(-c3ncccc3C(F)(F)F)cc2n1 [Compound 18, [4-(4-tert-Butyl-phenylamino)-7-(3-trifluoromethyl-pyridin-2-yl)-quinazolin-2-ylmethyl]-phosphonicacid monoethyl ester]
Ki [1]: < 1 µM

Cc1nc(Nc2ccc(C(C)(C)C(=O)O)cc2)c2ccc(-c3ncccc3C)nc2n1 [Compound 19, 2-Methyl-2-{4-[2-methyl-7-(3-methyl-pyridin-2-yl)-pyrido[2,3-d]pyrimidin-4-ylamino]-phenyl}-propionic acid]
Ki [1, 3]: < 1 µM

CC(C)(C)c1ccc(Nc2ncnc3cc(-c4ncccc4C(F)(F)F)ccc23)cc1OCCN1CCC[C@H]1C(=O)O [Compound 22, (S)-1-(2-{2-tert-Butyl-5-[7-(3-trifluoromethyl-pyridin-2-yl)-quinazolin-4-ylamino]-phenoxy}-ethyl)-pyrrolidine-2-carboxylic acid]
Ki [1, 3]: < 1 µM

CC(C)(C)c1ccc(Nc2ncnc3cc(-c4ncccc4C(F)(F)F)ccc23)cc1OCCOP(=O)(O)O [Compound 31, Phosphoric acid mono-(2-{2-tert-butyl-5-[7-(3-trifluoromethyl-pyridin-2-yl)-quinazolin-4-ylamino]-phenoxy}-ethyl) ester]
Ki [1, 3]: < 1 µM

CC(C)(C)c1ccc(Nc2nc(CP(=O)(O)O)nc3cc(-c4ncccc4C(F)(F)F)ccc23)cc1 [Compound 32, [4-(4-tert-Butyl-phenylamino)-7-(3-trifluoromethyl-pyridin-2-yl)-quinazolin-2-ylmethyl]-phosphonicacid]
Ki [1, 3]: < 1 µM

CC(C)(C)c1ccc(Nc2nc(N3CCC(C(=O)O)CC3)nc3nc(-c4ncccc4C(F)(F)F)ccc23)cc1 [Compound 44, 1-[4-(4-tert-Butyl-phenylamino)-7-(3-trifluoromethyl-pyridin-2-yl)-pyrido[2,3-d]pyrimidin-2-yl]-piperidine-4-carboxylic acid]
Ki [1, 3]: < 1 µM

COCc1nc2nc(-c3ncccc3C(F)(F)F)ccc2c(Nc2ccc(C(F)(F)F)cc2)c1C(=O)O [Compound 45, 2-Methoxymethyl-4-(4-trifluoromethyl-phenylamino)-7-(3-trifluoromethyl-pyridin-2-yl)-[1,8]naphthyridine-3-carboxylic acid]
Ki [1, 3]: < 1 µM

COc1cc(CNC(=O)CCCC/C=C/C(C)C)ccc1O [capsaicin]
EC90 [2]: ~0.1 µM
